Test results published in PubChem BioAssay (NCI).
Where “and” joins values, the source holds several entries; their conditions need not be identical. Identical values can stand only once.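 Grown in 96-well plates, cells were treated for 48 hours with each compound at five concentrations. Insufficient inhibition: endpoint recorded as highest concentration tested. GI50: concentration for 50% inhibition of growth. TGI: total growth inhibition.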

Key:
Experiment in all cases: NCI tumour cell line growth inhibition, 48 h
OVCAR-3 ovarian = tested on: OVCAR-3 ovarian
OVCAR-8 ovarian = tested on: OVCAR-8 ovarian
786-0 renal = tested on: 786-0 renal
PC-3 prostate = tested on: PC-3 prostate
DU-145 prostate = tested on: DU-145 prostate
A549 NSCLC = tested on: A549 NSCLC
SF-268 CNS = tested on: SF-268 CNS
NCI-H226 lung = tested on: NCI-H226 lung
CCRF-CEM leukemia = tested on: CCRF-CEM leukemia
SNB-75 CNS = tested on: SNB-75 CNS

In the case of `COc1cc2cc(Oc3ccc(NC(=O)c4cccc(C(F)(F)F)c4)cc3)c(C)nc2cc1OC`, the GI50 (OVCAR-3 ovarian) is reported as 3.96 µM, the TGI (OVCAR-3 ovarian) is reported as 45.5 µM and the GI50 (OVCAR-8 ovarian) is reported as 6.91 µM. For the same compound, the TGI (OVCAR-8 ovarian) was over 100 µM, the GI50 (786-0 renal) was 5.31 µM and the TGI (786-0 renal) was over 100 µM. The GI50 (PC-3 prostate) was 2.85 µM, the TGI (PC-3 prostate) was over 100 µM and the GI50 (DU-145 prostate) was 8.48 µM. For the same compound, the TGI (DU-145 prostate) was over 100 µM, the GI50 (A549 NSCLC) was 4.28 µM and the TGI (A549 NSCLC) was over 100 µM. It also gave a GI50 (SF-268 CNS) of over 100 µM, a TGI (SF-268 CNS) of over 100 µM and a GI50 (NCI-H226 lung) of 7.84 µM. For the same compound, the TGI (NCI-H226 lung) was over 100 µM.
In the case of `COc1cc2nncc(Sc3cnnc4ccccc34)c2cc1OC`, the TGI (OVCAR-3 ovarian) is reported as 33.3 µM, the TGI (786-0 renal) is reported as 96.9 µM and the TGI (A549 NSCLC) is reported as 71.9 µM. The TGI (SF-268 CNS) was over 100 µM, the TGI (CCRF-CEM leukemia) was 73.9 µM and the TGI (NCI-H226 lung) was 67.3 µM.
For `CC(C)N(C(C)C)[PH+]1O[PH+](N(C(C)C)C(C)C)O[PH+](N(C(C)C)C(C)C)O[PH+](N(C(C)C)C(C)C)O[PH+](N(C(C)C)C(C)C)O1.[C-]#[O+].[C-]#[O+].[C-]#[O+].[C-]#[O+].[C-]#[O+].[C-]#[O+].[C-]#[O+].[Cr].[Cr]` (centres undefined), the GI50 (OVCAR-3 ovarian) was over 100 µM, the TGI (OVCAR-3 ovarian) was over 100 µM and the GI50 (OVCAR-8 ovarian) was over 100 µM. It also gave a TGI (OVCAR-8 ovarian) of over 100 µM, a GI50 (786-0 renal) of over 100 µM and a TGI (786-0 renal) of over 100 µM. The GI50 (A549 NSCLC) was over 100 µM, the TGI (A549 NSCLC) was over 100 µM and the GI50 (SNB-75 CNS) was 75.4 µM. It also gave a TGI (SNB-75 CNS) of over 100 µM, a GI50 (SF-268 CNS) of over 100 µM and a TGI (SF-268 CNS) of over 100 µM. It also gave a GI50 (CCRF-CEM leukemia) of over 100 µM, a TGI (CCRF-CEM leukemia) of over 100 µM and a GI50 (NCI-H226 lung) of over 100 µM. For the same compound, the TGI (NCI-H226 lung) was over 100 µM.
For `COC(=O)c1nc(NN)[nH]c(=O)c1CCCCCc1c(C(=O)OC)[nH]c(NN)cc1=O`, the TGI (OVCAR-3 ovarian) was over 100 µM, the TGI (OVCAR-8 ovarian) was over 100 µM and the TGI (786-0 renal) was over 100 µM. The TGI (A549 NSCLC) was over 100 µM, the TGI (SNB-75 CNS) was over 100 µM and the TGI (SF-268 CNS) was over 100 µM. The TGI (CCRF-CEM leukemia) was over 100 µM and the TGI (NCI-H226 lung) was over 100 µM.
`COC(=O)C1=C(OC(=O)c2ccc(Cl)cc2)C(C(=O)OC)[C@@]2(O)[C@@H](C(=O)OC)C(c3ccccc3C(F)(F)F)C[C@@H]1[C@@H]2C(=O)OC` (some centres undefined) showed a GI50 (OVCAR-3 ovarian) of 20.3 µM, a TGI (OVCAR-3 ovarian) of 47.9 µM and a GI50 (OVCAR-8 ovarian) of 2.72 µM. It also gave a TGI (OVCAR-8 ovarian) of 9.87 µM, a GI50 (786-0 renal) of 4.86 µM and a TGI (786-0 renal) of over 100 µM. The GI50 (PC-3 prostate) was 4.5 µM, the TGI (PC-3 prostate) was over 100 µM and the GI50 (DU-145 prostate) was 6.1 µM. It also gave a TGI (DU-145 prostate) of over 100 µM, a GI50 (A549 NSCLC) of 3.59 µM and a TGI (A549 NSCLC) of 28.8 µM. For the same compound, the GI50 (SF-268 CNS) was 11 µM, the TGI (SF-268 CNS) was over 100 µM and the GI50 (CCRF-CEM leukemia) was 3.54 µM. It also gave a TGI (CCRF-CEM leukemia) of 31.2 µM.
Compound `CC(C)c1cccc(C(C)C)c1NC(=O)C(=O)C(C(=O)c1ccccc1-c1ccccc1)C1OC(=O)c2ccccc21` (centres undefined) has a TGI (OVCAR-8 ovarian) of 35 µM, a TGI (786-0 renal) of 36.8 µM and a TGI (A549 NSCLC) of over 100 µM. For the same compound, the TGI (SF-268 CNS) was 61.5 µM and the TGI (CCRF-CEM leukemia) was 68.5 µM.
`Cc1nc2c(n1CC(C)(C)C)C(=O)c1ccccc1C2=O` gave a TGI (OVCAR-3 ovarian) of over 100 µM, a TGI (OVCAR-8 ovarian) of over 100 µM and a TGI (786-0 renal) of over 100 µM. For the same compound, the TGI (A549 NSCLC) was over 100 µM, the TGI (SNB-75 CNS) was over 100 µM and the TGI (SF-268 CNS) was over 100 µM. For the same compound, the TGI (CCRF-CEM leukemia) was over 100 µM and the TGI (NCI-H226 lung) was over 100 µM.
For `CSc1ccc(/C=C2\CNC/C(=C\c3ccc(SC)cc3)C2=O)cc1`, the GI50 (OVCAR-3 ovarian) was 47.4 µg/mL, the TGI (OVCAR-3 ovarian) was > 136 µM and 150 µg/mL and the GI50 (OVCAR-8 ovarian) was 116 µg/mL. The TGI (OVCAR-8 ovarian) was > 102 µM and 150 µg/mL, the TGI (786-0 renal) was 153 µM and the TGI (DU-145 prostate) was over 371 µM. For the same compound, the GI50 (A549 NSCLC) was 150 µg/mL, the TGI (A549 NSCLC) was > 371 µM and 150 µg/mL and the GI50 (SNB-75 CNS) was 23.2 µM and 7.91 µg/mL. For the same compound, the TGI (SNB-75 CNS) was 86.4 µM and 47.5 µM and 27.9 µg/mL, the GI50 (SF-268 CNS) was 44 µg/mL and the TGI (SF-268 CNS) was > 141 µM and 150 µg/mL. For the same compound, the GI50 (CCRF-CEM leukemia) was 29.1 µg/mL, the TGI (CCRF-CEM leukemia) was > 371 µM and 78.8 µg/mL and the GI50 (NCI-H226 lung) was 99.7 µg/mL. For the same compound, the TGI (NCI-H226 lung) was 104 µM and 150 µg/mL.
`N=C(N)SCc1cn2ccccc2n1` showed a TGI (OVCAR-3 ovarian) of over 100 µM, a TGI (OVCAR-8 ovarian) of over 100 µM and a TGI (786-0 renal) of over 100 µM. For the same compound, the TGI (A549 NSCLC) was over 100 µM, the TGI (SNB-75 CNS) was over 100 µM and the TGI (SF-268 CNS) was over 100 µM. For the same compound, the TGI (CCRF-CEM leukemia) was over 100 µM and the TGI (NCI-H226 lung) was over 100 µM.
